# Assay results as given in patent publication US10246490B2 (priority 2014, dated 2019).
# Tested on: HVA calcium channel (high-voltage activated calcium ion channel)
# Type: cell-based, rat
smiles,measurement,setting,value
COC(=O)C1=C(C)NC(C)=C(C(=O)OC)C1c1ccccc1[N+](=O)[O-] [Nifedipine],current after loading,,−734.31 pA
same,current before loading,,−1471.35 pA
same,inhibition rate,10 μM,50.09%
